Laboratory results from patent US12485078B2, “Personal dental care product for caries treatment” (Credentis AG, priority 2016, dated 2025).
No end group written: not given here.

Legend:
[1] = self-assembling kinetic by measurements of elastic modulus G' (FIG. 6); assay type: physicochemical; conditions: 15 mg/ml; neutral pH; independent of ionic strength (buffers 140-165 mM); 0.1% strain, 37° C., 1 rad/second
Protocol: P11-4 was prepared at 15 mg/ml with different buffer compositions (see below) measured at 0.1% strain, 37° C. and a frequency of 1 rad/second. Self-assembly of peptide monomers to polymers takes more than 5 min independent of the used ionic strength at neutral pH. • Squares (top line of symbols)−NaCl: Tris (0.055 M)+NaCl, final ionic strength 142 mM; • Artificial saliva (second line of symbols from top): Tris, Ca(NO3)2, KH2PO4 (ratio 0.77:0.14:0.08), ionic strength 142 mM; • Dulbecco's Modified Eagle Medium (DMEM): NaCl, NaHCO3, KCl, CaCl2, MgSO4 (ratio 0.66:0.4:0.05:0.02:0.007), ionic strength 165 mM; • MgSO4: 0.055 M Tris+0.192 M MgSO4 0.14 M Ionic strength

[2] = Penetration of P11-4 (200 ppm, spiked with 10 ppm ATTO647-P11-4, 25 mM TRIS) into artificial subsurface lesions, confocal microscopy; parameters: species or system human
Protocol: Creation of artificial lesions on extracted human molar teeth was performed as described by Lo et al. 2010 (J Dent. 38(4):352-359). To define the position of the demineralized subsurface area (i.e., artificial carious lesion or white spot), the tooth was covered with colourless nail varnish, leaving a window of approximately 4×4 mm. The tooth was placed in demineralization buffer (2.2 mM CaCl2, 2.2 mM NaH2PO4, 50 mM acetic acid; pH adjusted with 1 M KOH to 4.4) for 3 d at 37° C. To ensure that all pores are open, as in a typical active caries lesion, the resulting subsurface lesions were treated with 10 μL of 2% NaClO (incubation for 1 min), rinsed, and air-dried at room temperature.
• A 200 ppm (i.e., 200 μg/ml) solution of P11-4 (SEQ ID NO: 2), spiked with 10 ppm ATTO647-P11-4 (fluorescence labelled P11-4 (SEQ ID NO: 6): Ac-QQRFEWEFEQQSGSGC-(ATTO647)-NH2), i.e., 1:20, in 25 mM TRIS buffer was prepared at different pH, in particular, at 8.4 or 8.5 or 6.3, 6.5 or 6.8) • As specified in the table below, tooth were optionally pretreated, e.g., by incubation in human saliva for one day (about 24 hours), optionally followed by 5 min sonication (258 hz with a sonic toothbrush, Sonicare Diamond Clean® (Philips)) or by immersion in 2% NaClO for 1 min. • Tooth were immersed in the P11-4 solution for a defined period of time, 1, 2 or 5 min, and then removed and washed in water for 10 min or in remineralization buffer (2 mM Ca(NO3), 1.2 mM KHPO4, and 60 mM Tris/HCl, pH adjusted to 7.4 with 1 M KOH) for 4 days and/or 6 days. • Confocal assessment after 1, 2 or 5 min incubation was carried out while the teeth were in P11-4 solution, and optionally, after washing in water or in remineralization buffer after 10 min or 4 or 6 days. c) Confocal Microscopy
Samples were placed in a μ-slide I (ibidi, Martinsried) in dest. water and analyzed by a confocal laser microscope (Olympus IX81). The recorded stack of four 2-dimensional images each projected the lesion volume of 51.4 μm thickness, giving a total assessment depth of 205 μm (objective: UPLSAPO 20×/NA 0.75; helium-neon gas laser; excitation: 633 nm and emission: 668 nm). Images were analyzed by Olympus software (FluoView FV1000).

[3] = self-assembling kinetic by quartz crystal microbalance with dissipation monitoring (QCM-D, FIG. 7); assay type: physicochemical; conditions: 10 mg/ml P11-4 in PBS pH 8.5 on P11-4 coated amine-coupling sensor
Protocol: P11-4 peptide was layered on the surface of the amine-coupling sensor at 1 mg/ml in PBS at pH8.5. After 1 hour and 1 hour 25 minutes, the sensor was washed with PBS pH 8.5. After 1 hour and 38 minutes, 10 mg/ml P11-4 peptide in PBS pH 8.5 were injected. After 2 hours, 0.1 M HCl were injected to induce self-assembly.
It can be seen that essentially complete self-assembly has occurred about 30 min after injection of 0.1 M HCl. Resonance frequency F (left scale, Hz) and energy dissipation factor D (right scale), triangle=frequency, square=dissipation are shown.

[4] = pH at which the peptide starts to undergo self-assembly; assay type: physicochemical; conditions: in solution
Description: As used herein, the pH at which the self-assembling peptide starts to undergo self-assembly refers to the pH below which a significant extent of self-assembly of the peptides in solution is observed, which means that at least about 25%, about 30%, about 35%, about 40%, about 45%, about 50%, about 55%, about 60%, about 65%, about 70%, about 75%, about 80%, about 85%, about 90%, about 95%, about 99% or even about 100% of the peptides found in the dental care product are assembled. In a preferred embodiment, at least about 25% of the peptides found in the dental care product are assembled below the pH at which the peptide starts to undergo self-assembly.
Further, the skilled person is aware of numerous methods to determine the pH at which a peptide of the present invention will start self-assembly at a given ionic strength. Suitable methods are denoted e.g. in a publication by Aggeli et al. (2003, J Am Chem Soc, 125, 9619-9628).

QQRFEWEFEQQ [self-assembling peptide of 11 amino acids]
time for self-assembly of peptide monomers to polymers [1]: more than 5 min | peptide in the lesions after 4 days' incubation in remineralization buffer ([2]; pH8.5, FIG. 9Be): Lower but significant amounts | peptide in the lesions after 1 min incubation ([2]; pH8.5, teeth 10 and 1, FIG. 9Bb): already detectable | peptide in the lesions after 2 min or 5 min incubation ([2]; pH8.5, teeth 10 and 1, FIG. 9Bc, 9Bd): most peptide was detected | effect of incubation in remineralization buffer after contact with P11-4 containing solution ([2]; remineralization buffer versus water wash (tooth 10 versus tooth 2)): improves maintenance of the self-assembling peptide in the lesion | effect of pellicle formation by saliva on infiltration at pH 6.3-6.8 ([2]; teeth 3, 13): further decreased infiltration by peptide | peptide detectable in the lesions after incubation at pH 6.3-6.8 (polymerized form) ([2]; teeth 4, 12, 3, 13, versus incubation at pH 8.4 or 8.5): lower amounts of peptide | negative effect of pellicle after cleaning by sonication or NaClO ([2]; teeth ZR3 (sonication) and ZR2 (NaClO), after incubation with human saliva): could be compensated for | effect of sonification pretreatment before incubation on peptide in the lesions ([2]; tooth ZR1, pH 8.5): increased presence of peptide in the lesions | peptide detected after pellicle formation and cleaning by sonification ([2]; versus no pre-incubation with saliva): even higher amounts than without pre-incubation with saliva | time to essentially complete self-assembly after injection of 0.1 M HCl [3]: about 30 min | pH at which the self-assembling peptides start to undergo self-assembly [4]: about 7.5
